Data taken from PubChem BioAssay AID1902 (Broad Institute, 2009).
Activity calls are given as the source filed them.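 How the source made its calls: active means EC50 no more than a set limit of log units above the highest dose; inactive means the rest.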

Target: S. pyogenes SKKanGAS, kanamycin survival, BacTiterGlo, 6 h
Assay: S. pyogenes SKKanGAS kanamycin growth inhibitors – SKKanGAS strain, luminescence, dose confirmation, streptokinase promoter inhibitor project, dose response (AID 1902);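 further: lower survival reflects blocked streptokinase promoter driving kanamycin resistance gene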

Compound	EC50
O=C1C(NS(=O)(=O)c2cccs2)=C(N2CCN(c3cccc(C(F)(F)F)c3)CC2)C(=O)c2ccccc21	8.85 µM
S=c1nc2ccccc2c2nc(-c3ccccc3)[nH]n12	5.36 µM
CCc1ccc2c(c1)C1(NN=C(c3cccc4ccccc34)S1)C(=O)N2 (configuration not stated)	0.115 µM
CC[C@H]1OC(=O)[C@H](C)[C@@H](O[C@H]2C[C@@](C)(OC)[C@@H](O)[C@H](C)O2)[C@H](C)[C@@H](O[C@@H]2O[C@H](C)C[C@H](N(C)C)[C@H]2O)[C@](C)(O)C[C@@H](C)C(=O)[C@H](C)[C@@H](O)[C@]1(C)O	< 0.06 µM
COc1ccc(C(=O)CSc2nc(-c3ccccn3)nc(C)c2Cl)cc1	1.4 µM
COc1ccccc1N=Nc1nc(-c2ccccc2)c(-c2ccccc2)[nH]1	1.39 µM
NS(=O)(=O)c1ccc(N/N=C2/CCCCC2C2CCCCC2)c([N+](=O)[O-])c1 (configuration not stated)	3.11 µM
Cc1ccc(CN2C(=O)c3ccccc3NC2c2cc(Br)ccc2O)cc1 (configuration not stated)	4.31 µM
CCOC(=O)c1c(NC(=O)c2cccs2)sc2c1CCN(C(=O)OCC)C2	13 µM
Cc1c(C(=O)N/N=C/c2ccc(Cl)cc2)[nH]c2ccc(Cl)cc12	2.71 µM
Cn1c(Oc2ccccc2NCc2cc(Br)ccc2O)cc(=O)n(C)c1=O	4.46 µM
CCOC(=O)c1cnc(-n2nc(C)cc2C)nc1NC1CCCC1	2.58 µM
O=C(/C(N=Nc1cccc([N+](=O)[O-])c1)=C(/O)c1ccc(Br)cc1)C(F)(F)F	4.28 µM
COc1cccc(CC(=O)OCC(=O)Nc2nnc(-c3ccccc3)o2)c1	4.58 µM
CCOc1ccc(N(CC(=O)NCc2ccc(C)cc2)S(=O)(=O)c2c(C)[nH]c(=O)[nH]c2=O)cc1	> 15 µM (inactive)
O=C(CNc1ccccc1)N/N=C/c1c(O)ccc2ccccc12	0.74 µM
CCc1ccc(NC2=NCC(c3ccccc3)S2)cc1 (configuration not stated)	6.4 µM
CCCc1cc(C(=O)Nc2ccc(C(=O)c3ccc(F)cc3)cc2)n(C)n1	> 15 µM (inactive)
CCOc1cc(CNc2ccc3c(c2)CCC3)ccc1OC	> 15 µM (inactive)
c1ccc(-c2nnc(-c3c[nH]c4ccccc34)nc2-c2ccccc2)cc1	7.17 µM
CC1CCCCC1NC(=O)CCn1ccc2cc(S(=O)(=O)N3CCCC3)ccc21 (configuration not stated)	> 15 µM (inactive)
Cc1c(CCC(=O)O)c(=O)oc2cc3occ(-c4ccc(Cl)cc4)c3cc12	3.46 µM
Cc1cccc(N=Nc2c(C)nn(-c3ccccc3)c2N)c1C	11.8 µM
CC(C)c1c(C(=O)N/N=C/c2cccc(OCc3ccccc3)c2)nnn1-c1nonc1N	9.4 µM
COc1cc(C(=O)Nc2ccc(-c3nc4cc(C)ccc4o3)c(O)c2)cc(OC)c1OC	3.9 µM
Cc1cc(=O)[nH]c(SCC(=O)Nc2ccc(Br)cc2)c1C#N	9.7 µM

Compound	EC50
CCCc1ccc(OCC(=O)NNC(=S)NC(=O)c2ccco2)cc1	< 0.06 µM
c1ccc2sc(SCSc3nc4ccccc4s3)nc2c1	2.86 µM
COc1cc(C(=O)NNC(=S)NC(=O)c2ccc(Cl)cc2)cc(OC)c1OC	0.499 µM
Cc1cc(NC(=O)c2c(F)cccc2Cl)n(-c2nc3ccccc3[nH]2)n1	8.04 µM
CCN(CC)CCN(C(=O)C1=COCCO1)c1nc2cc(C)cc(C)c2s1	> 15 µM (inactive)
Cc1nc2ccccc2n1/N=C/c1ccc([N+](=O)[O-])s1	2.39 µM
O=C(CN1c2ccccc2Sc2ccccc21)NNC(=O)Nc1ccc(Cl)c(Cl)c1	2.23 µM
O=C(COc1c(Cl)cccc1Cl)Nc1ccccc1N1CCCC1	6.24 µM
Cc1ccc(Nc2cc(C)nn2-c2nc(C)cc(=O)[nH]2)cc1	< 0.06 µM
CCc1ccc(N(CC(=O)NC2CC2)S(=O)(=O)c2ccc(C)cc2)cc1	> 15 µM (inactive)
CN1CCN(C2=Cc3ccc(Cl)cc3Sc3ccc(F)cc32)CC1	4.61 µM
O=C(N/N=C/c1c(O)n(C2CCCCC2)c(=S)[nH]c1=O)c1ccccc1	0.659 µM
Oc1ccc(/C=N/Nc2nc(-c3ccc(Cl)cc3)cc(C(F)(F)F)n2)cc1	7.89 µM
Cc1cccc(C)c1OC1(c2ccccc2)OC(=O)c2ccccc21 (configuration not stated)	2.85 µM
CC[n+]1c(/C=C/N(C)c2ccccc2)n(-c2ccccc2)c2ccc(-c3nc4ccccc4s3)cc21	3.61 µM
O=C(COc1cccc(Oc2ccccc2)c1)Nc1ccc(SC(F)F)cc1	13 µM
CCCCCCN1N=C(C)C(C(=O)c2ccc(Cl)cc2)C1=O (configuration not stated)	1.51 µM
Cc1ccc(Cl)cc1N1CCN(C(=O)c2cccc3c(=O)c(C)c(-c4ccccc4)oc23)CC1	4 µM
O=C(CN1CCc2ccccc2C1)Nc1ccccc1N1CCCCCC1	2.42 µM
CCc1nc(N)nc(N)c1-c1ccc(Cl)cc1	3.99 µM
S=c1[nH]nc(C2CCCCC2)n1/N=C/c1c(Cl)cccc1Cl	8.36 µM
COC(=O)c1ccc2[nH]c3cccc(/C(=C/c4ccccc4)c4ccccc4)c3c2c1	1.12 µM
COc1ccc(N2CCN(C(=O)c3cc(C)oc3C)CC2)cc1	> 15 µM (inactive)
CC(C)=CCc1c(O)cc2c(c1O)C(=O)CC(c1ccc(O)cc1)O2 (configuration not stated)	6.08 µM
Cc1nnc(Sc2cc(NCCCO)c([N+](=O)[O-])c3nonc23)s1	7.78 µM
COc1ccc(NP(=O)(Oc2ccc(Cl)cc2)Oc2ccc(Cl)cc2)cc1OC	7.25 µM

Compound	EC50
Cc1ccnn2c(-c3ccccc3)c3c(=O)n(C)c(=O)n(C)c3c12	> 15 µM (inactive)
O=C(N/N=C/c1ccccn1)c1ccc(Cl)c(Cl)c1	6.85 µM
CC(C)(C)c1ccc2c(c1)OC(C(=O)N/N=C/c1ccc([N+](=O)[O-])o1)CO2 (configuration not stated)	3.92 µM
Cc1ccc(NC(=S)N=Nc2c(O)[nH]c3ccccc23)cc1	0.631 µM
FC(F)(F)c1cccc(Nc2nc(N3CCCC3)nc(N3CCCC3)n2)c1	2.23 µM
O=C(CSc1ccc(Cl)cc1)NC1=NN(c2ccccc2)C(=O)C1	5.54 µM
COc1cccc(C(=O)Nc2nc(-c3ccccc3)c(-c3ccccc3)o2)c1	0.881 µM
Cc1cc(NCc2ccccn2)n2nc(C)c(-c3ccc(Cl)cc3)c2n1	4.36 µM
O=S(=O)(Nc1cccc(-c2ccc(N3CCOCC3)nn2)c1)c1ccc(Cl)c(Cl)c1	9.66 µM
Cc1cc(C)cc(C(=O)Nc2nc3ccccc3[nH]2)c1	6.04 µM
CCCn1c(NC(=O)c2ccccc2Br)nc2ccccc21	5.66 µM
COc1ccccc1-c1cc(=O)c2c(O)ccc([N+](=O)[O-])c2o1	2.56 µM
CCSc1cc(N2CCCC2)nc(-c2ccccc2)n1	> 15 µM (inactive)
O=[N+]([O-])c1cccnc1N1CCC(c2cc(-c3ccc(Cl)cc3Cl)n[nH]2)CC1	1.24 µM
C/C(=N\Nc1nc2ccc(Cl)cc2o1)c1ccccc1	2.33 µM
Cc1ccc(-c2cnc(N)n2C)cc1C	4.13 µM
CC1=NN(C(N)=S)C(=O)C1N=Nc1c(C)cc(C)cc1C (configuration not stated)	5.77 µM
CCOC(=O)C1=Nc2ccccc2C1=[N+]=[N-]	0.248 µM
O=C(NNC1=C(C(=O)C(F)(F)F)CCC1)c1cccc(Cl)c1	0.931 µM
C/C(=N\Nc1cc(C)nc(-c2ccccc2O)n1)c1ccccc1O	5.37 µM
COc1ccc(NC(=O)CN(C)C(=O)/C=C/c2cn(-c3ccccc3)nc2-c2ccc(C)cc2)cc1	8.68 µM
CN1c2ccsc2/C(=N/Nc2ccccc2)CS1(=O)=O	2.21 µM
Cc1ccc2nc(-c3ccc(NS(=O)(=O)c4ccc(F)cc4)cc3)sc2c1	3.31 µM
Cc1ccc2nc(N3C(=O)C(O)=C(C(=O)c4ccco4)C3c3cccs3)sc2c1 (configuration not stated)	2.1 µM
O=C(Nc1nnc(-c2ccc(Br)cc2)o1)c1ccco1	1.2 µM
